Measurements taken from patent US6525001B1, “Substituted pyrimidine and pyridine herbicides” (Mid-American Commercialization Corporation, priority 1997, dated 2003).

Experiments:
Assay in all cases: Test B pre-/postemergence
Format in all cases: in vivo
Design in all cases: key: 0 is no effect; 10 is complete control
[1] = tested on: bedstraw (Galium aparine)
In short: (§1)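 Response scores run from 0, meaning no effect, to 10, meaning complete control, assigned by eye relative to controls twelve to sixteen days after spraying. Treatment was both preemergence on planted seed and postemergence on plants at the 1- to 4-leaf stage.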

[2] = tested on: blackgrass (Alopecurus myosuroides)
In short: as §1

[3] = tested on: broadleaf signalgrass (Brachiaria decumbens)
In short: as §1

[4] = tested on: cocklebur (Xanthium strumarium); details: for Plant response rating, Cocklebur: Postemergence
In short: as §1

[5] = tested on: corn (Zea mays)
In short: as §1

[6] = tested on: crabgrass (Digitaria sanguinalis)
In short: as §1

[7] = tested on: giant foxtail (Setaria faberii)
In short: as §1

[8] = tested on: momingglory (Ipomoea hederacea)
In short: as §1

[9] = tested on: pigweed (Amaranthus retroflexus)
In short: as §1

[10] = tested on: rape (Brassica napus)
In short: as §1

[11] = tested on: soybean (Glycine max)
In short: as §1

[12] = tested on: sugar beet (Beta vulgaris)
In short: as §1

[13] = tested on: velvetleaf (Abutilon theophrasti)
In short: as §1

[14] = tested on: wheat (Triticum aestivum)
In short: as §1

Cc1cnc(-c2ccc(C(F)(F)F)cc2)nc1Cc1cccc(OC(F)(F)F)c1 [Compound 15]
4: Plant response rating, B. signalgrass ([3]; Rate 62 g/ha, Postemergence) | Plant response rating, B. signalgrass ([3]; Rate 125 g/ha, Postemergence) | Plant response rating, Corn ([5]; Rate 125 g/ha, Postemergence) | Morningglory plant response rating ([8]; Rate 62 g/ha, Preemergence) | Velvetleaf plant response rating ([13]; Rate 62 g/ha, Preemergence) | Plant response rating, Wheat ([14]; Rate 62 g/ha, Postemergence) | Plant response rating, Wheat ([14]; Rate 125 g/ha, Postemergence) | Wheat plant response rating ([14]; Rate 125 g/ha, Preemergence)
5: Plant response rating, Corn ([5]; Rate 250 g/ha, Postemergence) | Plant response rating, Velvetleaf ([13]; Rate 62 g/ha, Postemergence)
0: Soybean plant response rating ([11]; Rate 62 g/ha, Preemergence)
10: Blackgrass plant response rating ([2]; Rate 125 g/ha, Preemergence) | Plant response rating, Blackgrass ([2]; Rate 250 g/ha, Preemergence) | Plant response rating, Cocklebur ([4]; Rate 250 g/ha) | Crabgrass plant response rating ([6]; Rate 125 g/ha, Preemergence) | Plant response rating, Crabgrass ([6]; Rate 250 g/ha, Preemergence) | Giant foxtail plant response rating ([7]; Rate 62 g/ha, Preemergence) | Giant foxtail plant response rating ([7]; Rate 125 g/ha, Preemergence) | Plant response rating, Giant foxtail ([7]; Rate 250 g/ha, Preemergence) | Redroot pigweed plant response rating ([9]; Rate 125 g/ha, Preemergence) | Plant response rating, Redroot pigweed ([9]; Rate 250 g/ha, Preemergence) | Sugarbeets plant response rating ([12]; Rate 62 g/ha, Preemergence) | Sugarbeets plant response rating ([12]; Rate 125 g/ha, Preemergence) | Plant response rating, Sugarbeets ([12]; Rate 250 g/ha, Postemergence) | Plant response rating, Sugarbeets ([12]; Rate 250 g/ha, Preemergence)
9: Plant response rating, Bedstraw ([1]; Rate 62 g/ha, Postemergence) | Plant response rating, Bedstraw ([1]; Rate 125 g/ha, Postemergence) | Plant response rating, Bedstraw ([1]; Rate 250 g/ha, Postemergence) | Blackgrass plant response rating ([2]; Rate 62 g/ha, Preemergence) | Plant response rating, Blackgrass ([2]; Rate 125 g/ha, Postemergence) | Plant response rating, Blackgrass ([2]; Rate 250 g/ha, Postemergence) | B. signalgrass plant response rating ([3]; Rate 62 g/ha, Preemergence) | B. signalgrass plant response rating ([3]; Rate 125 g/ha, Preemergence) | Plant response rating, B. signalgrass ([3]; Rate 250 g/ha, Preemergence) | Plant response rating, Cocklebur ([4]; Rate 62 g/ha) | Plant response rating, Cocklebur ([4]; Rate 125 g/ha) | Plant response rating, Crabgrass ([6]; Rate 62 g/ha, Postemergence) | Crabgrass plant response rating ([6]; Rate 62 g/ha, Preemergence) | Plant response rating, Crabgrass ([6]; Rate 125 g/ha, Postemergence) | Plant response rating, Crabgrass ([6]; Rate 250 g/ha, Postemergence) | Plant response rating, Morningglory ([8]; Rate 250 g/ha, Postemergence) | Plant response rating, Morningglory ([8]; Rate 250 g/ha, Preemergence) | Plant response rating, Redroot pigweed ([9]; Rate 62 g/ha, Postemergence) | Plant response rating, Redroot pigweed ([9]; Rate 125 g/ha, Postemergence) | Plant response rating, Redroot pigweed ([9]; Rate 250 g/ha, Postemergence) | Plant response rating, Rape ([10]; Rate 62 g/ha, Postemergence) | Plant response rating, Rape ([10]; Rate 125 g/ha, Postemergence) | Rape plant response rating ([10]; Rate 125 g/ha, Preemergence) | Plant response rating, Rape ([10]; Rate 250 g/ha, Postemergence) | Plant response rating, Rape ([10]; Rate 250 g/ha, Preemergence) | Plant response rating, Soybean ([11]; Rate 62 g/ha, Postemergence) | Plant response rating, Soybean ([11]; Rate 125 g/ha, Postemergence) | Plant response rating, Soybean ([11]; Rate 250 g/ha, Postemergence) | Plant response rating, Sugarbeets ([12]; Rate 62 g/ha, Postemergence) | Plant response rating, Sugarbeets ([12]; Rate 125 g/ha, Postemergence)
7: Plant response rating, Giant foxtail ([7]; Rate 62 g/ha, Postemergence) | Plant response rating, Giant foxtail ([7]; Rate 125 g/ha, Postemergence) | Morningglory plant response rating ([8]; Rate 125 g/ha, Preemergence) | Velvetleaf plant response rating ([13]; Rate 125 g/ha, Preemergence) | Plant response rating, Velvetleaf ([13]; Rate 250 g/ha, Preemergence) | Plant response rating, Wheat ([14]; Rate 250 g/ha, Preemergence)
1: Cocklebur plant response rating ([4]; Rate 125 g/ha, Preemergence) | Corn plant response rating ([5]; Rate 62 g/ha, Preemergence) | Corn plant response rating ([5]; Rate 125 g/ha, Preemergence) | Soybean plant response rating ([11]; Rate 125 g/ha, Preemergence) | Plant response rating, Soybean ([11]; Rate 250 g/ha, Preemergence)
8: Bedstraw plant response rating ([1]; Rate 125 g/ha, Preemergence) | Plant response rating, Bedstraw ([1]; Rate 250 g/ha, Preemergence) | Plant response rating, B. signalgrass ([3]; Rate 250 g/ha, Postemergence) | Plant response rating, Giant foxtail ([7]; Rate 250 g/ha, Postemergence) | Plant response rating, Morningglory ([8]; Rate 62 g/ha, Postemergence) | Plant response rating, Morningglory ([8]; Rate 125 g/ha, Postemergence) | Plant response rating, Velvetleaf ([13]; Rate 125 g/ha, Postemergence) | Plant response rating, Velvetleaf ([13]; Rate 250 g/ha, Postemergence)
6: Bedstraw plant response rating ([1]; Rate 62 g/ha, Preemergence) | Plant response rating, Blackgrass ([2]; Rate 62 g/ha, Postemergence) | Redroot pigweed plant response rating ([9]; Rate 62 g/ha, Preemergence) | Rape plant response rating ([10]; Rate 62 g/ha, Preemergence) | Plant response rating, Wheat ([14]; Rate 250 g/ha, Postemergence)
2: Plant response rating, Corn ([5]; Rate 250 g/ha, Preemergence) | Wheat plant response rating ([14]; Rate 62 g/ha, Preemergence)
3: Plant response rating, Corn ([5]; Rate 62 g/ha, Postemergence)
